Reference: patent US20040214762A1, “Use of inhibitors of proline endopeptidase to modulate inositol (1,4,5) triphosphate concentration dependent on intracellular signal cascades” (priority 2001, published 2004)
Values belong to the compound of their own block, whether it stands above or below them.

Assays:
[1] = system: IP3 concentration in U343 cells; assay: IP3 concentration in U343 cells treated with PEP inhibitor (isotope dilution method); type: cell-based, human
Method: (§1) To characterize the intracellular function of PEP, the IP3 concentration in the antisense cell lines Was measured. Cells were grown in 25 cm^2 culture flasks to nearly 100% confluence. IP3 concentration was determined by an isotope dilution method (Amersham Phamacia Biotech) using 0.5×10^6 cells per measurement. To inhibit intracellular PEP, the cells were washed twice with PBS and incubated for 4 hours in Optimem 1 medium (GIBCO BRL) supplemented with 5 μM PEP-inhibitor Fmoc-alanyl-pyrroline-2-nitrile (Fmoc-Ala-Pyrr-CN). All measurements were done in quadruplicate. The calculation of IP3 concentration and the statistical analysis (t-test) were performed using Prism 3.0 (Graph Pad Software).
To use an alternative approach suppressing PEP activity in U343 cells, the cells were incubated for 3 hours in presence of the specific inhibitor Fmoc-Ala-Pyrr-CN (5 μM). The influence of DMSO, necessary for dissolving the inhibitor, was excluded by adding the same amount (0.05%) of DMSO to the media of control cells. […] However, the observed changes in IP3 concentration were only 0.16 pmol/10^6 cells. This is much lower than the observed change on IP3 concentration in cell line as-11 still having 30% remaining PEP activity, and calls into question the correlation between PEP activity and IP3 concentration. […] Moreover, the lower concentration of IP3 measured after 24 hours reflects the slight recovery of PEP activity at that time point. The total amount of IP3 after 12 hours (1.69±0.1) pmol/10^6 cells; n=4) is higher than the concentration measured in cell line as-11 (0.9±0.07 pmol/10^6 cells; n=4), displaying 30% remaining enzyme activity.

[2] = system: IP3 concentration in U343 cells; assay: IP3 concentration in U343 cells after stimulation by substance P; type: cell-based, human; details: for difference in IP3 concentration by inhibition: 5 μM inhibitor 12 hours
Method: as §1, with “To inhibit intracellular PEP, the cells were washed twice with PBS and incubated for 4 hours in Optimem 1 medium (GIBCO BRL) supplemented with 5 μM PEP-inhibitor Fmoc-alanyl-pyrroline-2-nitrile (Fmoc-Ala-Pyrr-CN).” left out
Wild-type and PEP antisense U343 cell lines were cultured in duplicate in 21 cm^2 culture dishes (Greiner) until confluence. Prior to stimulation the cells were washed twice in PBS and preincubated for 10 h in Optimem1 medium containing 1.6 μg/ml leupeptin (Sigma), 0.86 μg/ml chymostatin (Sigma), and 40 μg/ml bacitracin (Sigma) at 37° C. and 5% CO2. Substance P (Bachem) was added to obtain a final concentration of 1×10^−6 M and the incubation was stopped at the indicated time by rapidly aspirating the medium and adding of 0.4 ml ice cold trichloric acid. Preparation of samples and measurement of IP3 concentration were performed as described above.

[3] = biological target: T1, PEP (Homo sapiens, UniProt P48147); assay: Ki against recombinant human PEP; type: biochemical; details: data not shown
T1 sequence (P48147 1-710): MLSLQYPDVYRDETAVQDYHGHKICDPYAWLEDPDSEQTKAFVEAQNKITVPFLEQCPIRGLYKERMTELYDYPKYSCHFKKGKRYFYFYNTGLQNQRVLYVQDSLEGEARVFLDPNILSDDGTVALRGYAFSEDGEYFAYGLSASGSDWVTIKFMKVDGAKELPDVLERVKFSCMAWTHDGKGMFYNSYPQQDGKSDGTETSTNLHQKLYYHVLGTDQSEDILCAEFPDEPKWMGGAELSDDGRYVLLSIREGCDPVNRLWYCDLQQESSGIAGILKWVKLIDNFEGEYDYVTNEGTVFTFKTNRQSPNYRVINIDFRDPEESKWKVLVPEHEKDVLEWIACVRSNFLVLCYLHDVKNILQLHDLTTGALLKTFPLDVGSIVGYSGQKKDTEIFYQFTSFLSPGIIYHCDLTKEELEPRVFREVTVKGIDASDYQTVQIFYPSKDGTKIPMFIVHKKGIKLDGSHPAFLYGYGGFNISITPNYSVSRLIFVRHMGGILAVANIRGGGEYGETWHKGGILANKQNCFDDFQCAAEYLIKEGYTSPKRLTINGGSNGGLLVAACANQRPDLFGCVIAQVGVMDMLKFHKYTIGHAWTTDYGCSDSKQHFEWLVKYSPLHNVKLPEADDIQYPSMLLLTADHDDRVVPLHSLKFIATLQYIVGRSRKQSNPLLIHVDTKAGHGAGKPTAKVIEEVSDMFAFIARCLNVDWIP
Method: (§2) Two different approaches were chosen to influence the intracellular activity of PEP in U343 cells. Fmoc-Ala-Pyrr-CN is a potent and specific inhibitor for PEP (9), with an observed Ki value of 70 pM against recombinant human PEP (data not shown). It has been shown that this inhibitor is able to penetrate the cell membrane and inhibit PEP intracellularly (10). […] This inhibition is observed for up to 12 hours without adding fresh inhibitor. In addition, a totally different approach of reducing PEP activity was employed by generating antisense cell lines displaying reduced expression of the target enzyme.

[4] = biological target: T2, intracellular PEP activity (Homo sapiens, UniProt P48147); assay: Inhibition of intracellular PEP activity in U343 cells (Z-Gly-Pro-NHMec); type: cell-based
T2 construct: endogenous in cells; host or cells: U343 human astro glioma cells (wild type)
T2 sequence (P48147 1-710): T1 sequence (P48147 1-710)
Method: as §2
For the determination of PEP activity, U343 wild-type and PEP antisense cells (1×10^7) were harvested by washing twice in phosphate buffered saline (GIBCO BRL) and resuspended in 200 μl assay buffer (50 mM HEPES pH 7.5; 200 mM NaCl; 1 mM EDTA; 1 mM DTT). […] The protein concentration in the supernatant was determined according to the method of Bradford (5). PEP activity was measured in assay buffer using the fluorogenic substrate Z-Gly-Pro-NHMec (10 μM) (Bachem) on a Kontron spectrofluorometer SFM 25 (excitation 380, emission 460) equipped with a four-cell changer and controlled by an IBM-compatible personal computer. The obtained data were analyzed with the software Flucol (6).

[5] = biological target: T1, PEP; assay: Degradation of substance P in serum free medium of U343 cells (MALDI-TOF MS); type: in vitro ADME; design: endogenous in cells; host or cells: U343 human astro glioma cells (wild type); details: serum free Optimem1 medium of U343 cells, 10 min; data not shown
Method: Using RT-PCR, the occurrence of substance P specific neurokinin receptors (NK-R) in U343 cells was investigated. PCR products could be obtained for two receptors displaying an appropriate size (FIG. 5). […] Being aware that substance P is an excellent in vitro substrate for PEP, we investigated potential degradation of substance P during the incubation time in the serum free Optimem1 medium of U343 cells by MALDI-TOF MS analysis. […] This is in agreement with the fact that no PEP activity is measurable in the medium (FIG. 6).

[6] = biological target: T3, purified recombinant human prolyl endopeptidase (Homo sapiens, UniProt P48147); assay: Determination of IC50 with Z-Gly-Pro-AMC; type: biochemical; details: Z-Gly-Pro-AMC 10 μM, 37° C., 60 min
T3 sequence (P48147 1-710): T1 sequence (P48147 1-710)
Method: 100 μl inhibitor stock solution were mixed with 100 μl buffer (EPES pH7.6) and 50 μl substrate (Z-Gly-Pro-AMC, final concentration 10 μM). Reaction was started by addition of 20 μl purified recombinant human prolyl endopeptidase. Fluorescence measurement was performed at 37° C. and λexiatation=380 nm, λemission=465 nm for 60 min using a plate reader (HTS7000plus, Applied Biosystems, Weiterstadt, Germany). The final inhibitor concentrations ranged between 1 pM and 10 μM. For calculation of the IC50 value Prism 3″ (Graphpad) was used. The IC50-value of Benzyl-N-[1-(cyclopentylcarbonyl)-2-methylbutyl]carbamate was calculated as of IC50=8,91*10^−7 M

- Ki [3]: 0.07 nM
- duration of inhibition without adding fresh inhibitor ([4]; 5 μM): up to 12 hours
- inhibition of intracellular PEP activity ([4]; 5 μM in medium): total inhibition
Compound: Fmoc-alanyl-pyrroline-2-nitrile [Fmoc-Ala-Pyrr-CN]
- change in IP3 concentration ([1]; 5 μM, 3 hours incubation): 0.16 pmol/10^6 cells
- total amount of IP3 ([1]; 5 μM, after 12 hours total inhibition, n=4): 1.69±0.1 pmol/10^6 cells
- time to maximum IP3 concentration ([1]; single treatment 5 μM): 12 h
- difference in IP3 concentration by inhibition ([2]; U343 cells stimulated with 1 μM substance P 5 sec): 7.9 pmol/10^6 cells
- kinetic profile of IP3 stimulation by substance P, inhibitor treated vs control cells ([2]; U343 wild-type cells, 5 μM for 12 hours, 1 μM substance P): slight increased, but similar pattern
- proportional difference in IP3 concentration by inhibition ([2]; non stimulated U343 cells): 5.5 fold
- difference in IP3 concentration by inhibition ([2]; non stimulated U343 cells): 1.7 pmol/10^6 cells
- proportional difference in IP3 concentration by inhibition ([2]; substance P stimulated U343 cells): 1.7 fold

Compound: substance P: neuropeptide (Bachem), peptide hormone used to stimulate U343 cells
- time of maximum IP3 concentration after stimulation ([2]; U343 wild-type untreated or inhibitor treated and as-2 cells, 1 μM substance P): 5 s
- rise of IP3 concentration by substance P stimulation ([2]; wild-type U343 cells, 1 μM substance P, 5 sec): about 14 fold
- IP3 concentration after substance P stimulation ([2]; wild-type U343 cells, 1 μM substance P, 5 sec, n=4): 5.4±0.49 pmol/10^6 cells
- PEP specific degradation [5]: no PEP specific degradation was observed

- IC50 [6]: 891 nM
Compound: CCC(C)C(NC(=O)OCc1ccccc1)C(=O)C1CCCC1 (stereo not shown) [Benzyl-N-[1-(cyclopentylcarbonyl)-2-methylbutyl]carbamate]
